In US4141989A, “Fungicidal 3-(N-chloroacetyl-N-arylamino)-gamma-butyrolactone compositions” (Chevron Research Company, priority 1977, dated 1979):

Experiments:
Assay type in all cases: in vivo
Plasmopara viticola [1] = assay: Eradicant grape downy mildew control, detached Emperor leaves (Example 6, Table I); conditions: 48 h, sprayed 2 days after inoculation, read-out: Eradicative Grape Downy Mildew Control, %
Plasmopara viticola [2] = assay: Preventive grape downy mildew control, detached Emperor leaves (Example 5, Table I); conditions: 100 ppm, sprayed before inoculation
Phytophthora cryptogea [3] = assay: Safflower crown and root rot control by foliar spray (Example 17, Table XII)
Plasmopara viticola [4] = assay: Eradicant downy mildew control on Emperor and Carignane grape leaves (Example 9, Table IV)
[5] = system: Pseudoperonospora cubensis; assay: Foliar spray control of cucumber downy mildew (Example 15, Table X)
Bremia lactucae = assay: Control of lettuce downy mildew (Example 13, Table VIII)
Plasmopara viticola [6] = assay: Preventive grape downy mildew control, detached Cabernet Sauvignon leaves (Example 7, Table II)
Phytophthora cryptogea [7] = assay: Snapdragon crown and root rot control, soil drench (Example 16, Table XI); conditions: in vivo
Phytophthora cryptogea [8] = assay: Snapdragon crown and root rot control, foliar spray (Example 16, Table XI); conditions: in vivo
[9] = Carignane leaves, treated 3 days after inoculation
[10] = Emperor leaves, treated 1 day after inoculation
[11] = Emperor leaves, treated 2 days after inoculation

Compound	pest or weed control at 100 ppm (Plasmopara viticola [1]) [%]	pest or weed control at 100 ppm (Plasmopara viticola [2]) [%]	other results
O=C1OCCC1N(C(=O)CCl)c1cc(Cl)cc(Cl)c1 (stereo not shown) [Compound 11]	54	45	–
Cc1cc(C)c(N(C(=O)CCl)C2CCOC2=O)c(C)c1 (stereo not shown) [Compound 24]	0	–	–
O=C1OCCC1N(C(=O)CCl)c1ccc(Cl)c(Cl)c1 (stereo not shown) [Compound 10]	39	89	–
Cc1cc(N2CCC(N(C(=O)CCl)c3c(C)cccc3C)C2=O)ccc1Cl (stereo not shown) [Compound 22]	32	–	–
Cc1cccc(C)c1N(C(=O)C(Cl)=C(Cl)Cl)C1CCOC1=O (stereo not shown) [Compound 19]	15	–	–
CCc1cccc(CC)c1N(C(=O)CCl)C1CC(C)OC1=O (stereo not shown) [Compound 12]	87	–	–
Cc1cccc(C)c1N(C(=O)CCCl)C1CCOC1=O (stereo not shown) [Compound 17]	50	–	–
CCC(=O)N(c1ccc(Cl)c(Cl)c1)C1CCOC1=O (stereo not shown) [Compound 1]	–	0	pest or weed control at 40 ppm (Plasmopara viticola [1]): 5%
C=CCN1CCC(N(C(=O)CCl)c2c(C)cccc2C)C1=O (stereo not shown) [Compound 20]	0	–	–
Cc1cccc(C(C)(C)C)c1N(C(=O)CCl)C1CCOC1=O (stereo not shown) [Compound 25]	0	–	–
CC(C)c1ccccc1N(C(=O)CCl)C1CCOC1=O (stereo not shown) [Compound 7]	–	3	pest or weed control at 16 ppm (Plasmopara viticola [1]; 16 ppm): 17%
COc1cccc(OC)c1N(C(=O)CCl)C1CCOC1=O (stereo not shown) [Compound 16]	67	–	–
O=C1OCCC1N(C(=O)CCl)c1ccccc1 (stereo not shown) [Compound 5]	0	–	–
COC(=O)C(C)N(C(=O)CCl)c1c(C)cccc1C (stereo not shown) [drawing 3, reference compound]	–	–	% Control (Phytophthora cryptogea [3]; 16 ppm): 0%; % Control (Phytophthora cryptogea [3]; 40 ppm): 0%; % Control (Phytophthora cryptogea [3]; 100 ppm): 10%
CCc1ccccc1N(C(=O)CCl)C1CCOC1=O (stereo not shown) [Compound 8]	0	0	–
O=S(=O)([O-])[O-].[Cu+2] [Cupric sulfate]	–	–	Eradication ED50 (ppm of applied spray for 50% control) (Plasmopara viticola [4]; [9]): 380 ppm; Eradication ED90 (ppm of applied spray for 90% control) (Plasmopara viticola [4]; [9]): 610 ppm; Eradication ED50 (ppm of applied spray for 50% control) (Plasmopara viticola [4]; [10]): 118 ppm; Eradication ED90 (ppm of applied spray for 90% control) (Plasmopara viticola [4]; [10]): 289 ppm; Eradication ED50 (ppm of applied spray for 50% control) (Plasmopara viticola [4]; [11]): 204 ppm; Eradication ED90 (ppm of applied spray for 90% control) (Plasmopara viticola [4]; [11]): 445 ppm
Cc1cccc(C)c1N(C(=O)CCl)C1CCNC1=O (stereo not shown) [Compound 21]	0	–	–

Compound	pest or weed control at 100 ppm (Plasmopara viticola [1]) [%]	pest or weed control at 100 ppm (Plasmopara viticola [2]) [%]	other results
Cc1cccc(C)c1N(C(=O)CCl)C1CCN(C)C1=O (stereo not shown) [Compound 4]	3	–	–
Cc1cccc(C)c1N(C(=O)c1ccc(Cl)cc1)C1CCN(C)C1=O (stereo not shown) [Compound 23]	0	–	–
CCc1cccc(CC)c1N(C(=O)CCl)C1CCOC1=O (stereo not shown) [Compound 6]	39	0	–
O=C1OCCC1N(C(=O)CCl)c1c(Cl)cccc1Cl (stereo not shown) [Compound 9]	95	0	pest or weed control at 40 ppm (Plasmopara viticola [1]): 67%
CCc1cccc(C)c1N(C(=O)CCl)C1CCOC1=O (stereo not shown) [Compound 13]	87	0	–
Manganous ethylene bisdithiocarbamate [Maneb, reference compound]	–	–	% Control ([5]; 16 ppm): 80%; % Control ([5]; 40 ppm): 90%; % Control ([5]; 100 ppm): 98.3%; % Dead Seedlings (Bremia lactucae): 14.5%; % Control (Bremia lactucae; in vivo): 40.6%
Cc1cccc(C)c1N(C(=O)CCl)C1CC(C)OC1=O (stereo not shown) [B, 3-(N-chloroacetyl-N-2,6-dimethylphenylamino)-5-methyl-gamma-butyrolactone]	–	80	pest or weed control at 40 ppm (Plasmopara viticola [1]): 95%
Cc1ccc(N(C(=O)CCl)C2CCOC2=O)cc1C (stereo not shown) [Compound 26]	87	12	–
O=C1c2ccccc2C(=O)N1SC(Cl)(Cl)Cl [Folpet, N-(trichloromethylthio)phthalimide, reference compound]	–	–	Percent Control (Plasmopara viticola [6]; 6.4 ppm): 80.1%; Percent Control (Plasmopara viticola [6]; 16 ppm): 98.8%; Percent Control (Plasmopara viticola [6]; 40 ppm): 97.7%
{[1,2-ethanediylbis(carbamodithioato)](2-)} manganese mixture with {[1,2-ethanediylbis(carbamodithioato)](2-)}-0 zinc [Mancozeb, reference compound]	–	–	% Control (Phytophthora cryptogea [7]): 0%; % Control (Phytophthora cryptogea [8]): 0%
COc1ccccc1N(C(=O)CCl)C1CCOC1=O (stereo not shown) [Compound 3]	12	0	–
COC(=O)C(C)N(C(=O)CCl)c1c(C)cccc1C (stereo not shown) [Compound 27, reference compound]	96	78	–
Cc1cccc(C)c1N(C(=O)c1ccc(Cl)c(Cl)c1)C1CCOC1=O (stereo not shown) [Compound 2]	29	–	–
Cc1cccc(C)c1N(C(=O)CBr)C1CCOC1=O (stereo not shown) [Compound 15]	54	–	–
CCc1cccc(C)c1N(C(=O)CCl)C1CC(C)OC1=O (stereo not shown) [Compound 14]	29	–	–
Cc1cccc(C)c1N(C(=O)CCl)C1CCN(C(C)C)C1=O (stereo not shown) [Compound 18]	37	15	–
